Columns and labels:
M. intracellulare [1] = conditions: Gangadharam et al.; cited from earlier work
M. intracellulare [2] = assay: In vitro activity against serovars of M. intracellulare, radiometric (Bactec) method; type: cell-based
Method: A study of the effect of CQQ on different serovars of M. intracellulare in vitro was performed using the radiometric (Bactec) method. Maximum growth index (GI) of 999 was determined (for control models) in terms of the number of days necessary for the culture to reach this stage. GI is measured using the special instrument which reads the amount of ^14 C labelled CO2 liberated from the strains using the ^14 C labelled substrates.

M. tuberculosis = conditions: Gangadharam et al.; cited from earlier work
M. intracellulare [3] = assay: In vivo chemotherapeutic activity against M. intracellulare in the Beige mouse model (Example II); design: species or system M. intracellulare (host: Beige mice); conditions: 10 mg/kg daily orally; 1, 2 and 4 weeks (P 0.05), FIG. 2
blood clotting = assay: Effect on blood clotting; type: in vivo; conditions: oral, intraperitoneal and intramuscular, varying amounts, FIG. 8
Method: Due to its relationship to Vitamin K, there was some concern as to the effect CQQ would have on blood clotting. Varying amounts of CQQ were administered orally, intraperitoneally, and intramuscularly.

lymphocytes = assay: Effect on chromosomal structures in lymphocytes; type: cell-based, human; conditions: 0.5 ml of 10 mcg/ml solution
Method: In order to determine the effect of CQQ on chromosomes, blood was collected from a healthy volunteer, and lymphocytes were isolated from the sample. These were cultivated in a folate deficient medium, and after approximately 24 hours of cultivation, 0.5 ml of a solution of CQQ (10 mcg/ml) was added to the culture. Incubation at 37° C. for 72 hours followed. The lymphocytes were then harvested, following routine laboratory porocedures and were stained with Giemsa stain.

[4] = tested on: Mycobacterium intracellulare strain 571-8; assay: In vivo chemotherapeutic activity against M. intracellulare, acute model in Beige mice (Example 1); design: species or system M. intracellulare (host: Beige mice, C57Bl/6/bg/bg); conditions: FIG. 1
macrophages = assay: Cytotoxicity to macrophages (Table 3 footnote); type: cell-based, human; conditions: Sample I; 200 NG/ML (cell printed *)
Excerpt: Blood from a healthy volunteer was drawn and monocytes were removed and cultured to the macrophage stage. This required about 7 days. The macrophages were then exposed to M. leprae bacilli obtained from biopsy specimens of leprosy patients. One sample was exposed to CQQ, while other samples were exposed to DDS (diaminodiphenyl sulphone), the standard antileprosy drug, or rifampin, at various concentrations. Macrophages were exposed to radiolabelled tritium (^3 H) labeled thymidine, and its uptake was measured using a liquid scintillation counter. A control model of M. leprae exposed macrophages, which was not treated was used as well. The uptake of thymidine is a measure of antimycobacterial activity.

M. tuberculosis H37 Rv = assay: In vivo activity against M. tuberculosis infections in C57Bl/6 mice (Example VII); design: species or system M. tuberculosis (host: C57Bl/6 mice)
Method: Animal studies were performed using the mouse model. Mice are accepted as excellent experimental models for human mycobacterial diseases. While earlier literature (see review by Youmans etc.), have established C57Bl/6 mice models for in vivo studies with M. tuberculosis, mouse models for experimental M. intracellulare infections were difficult until recently (see review by Gangadharam). The Beige mouse (C57Bl/6/bg/bg) model established by Gangadharam et al is now used for studies with M. intracellulare. In the in vivo studies described below, C57Bl/6 and Beige mice models are used for M. tuberculosis and M. intracellulare infections, respectively.
In chemotherapy studies, various concentrations of CQQ and ansamycin (LM 427), were used. Lung and spleen tissue samples from the animal models were used. "CFU" refers to the "colony forming units" observed when culturing these samples.
In all of the following experiments, spleens and lungs were removed aseptically from the subject animals, at different periods of challenge. The organs were ground and samples of the ground organs were plated in aliquots on 7H11 agar medium. If the bacteria were present, they would grow, forming CFUs. The plates were incubated at 37° C. (with 5% CO2 for M. tuberculosis), and read after three weeks incubation.
CFUs were counted by visual enumeration. If increased magnification was necessary, this was done using a plate microscope.
In this experiment C57Bl/6 mice were infected intravenously with M. tuberculosis H37 Rv strain and one group was treated daily orally with 10 mg/kg of CQQ and the others as untreated infected control.

[5] = 8.0 mcg/ml, serovar 3, strain 7-17
[6] = 8.0 mcg/ml, serovar 3, strain 9-75
[7] = 8.0 mcg/ml, serovar 3, strain 12-1
[8] = 8.0 mcg/ml, serovar 3, strain 971-8
[9] = 8.0 mcg/ml, serovar 4, strain 5-13
[10] = 8.0 mcg/ml, serovar 4, strain 7-55
[11] = 8.0 mcg/ml, serovar 4, strain 8-50
[12] = 8.0 mcg/ml, serovar 4, strain TMC1463
[13] = 8.0 mcg/ml, serovar 9, strain 2-10
[14] = 8.0 mcg/ml, serovar 9, strain 6-38
[15] = 8.0 mcg/ml, serovar 9, strain 7-25
[16] = 8.0 mcg/ml, serovar 9, strain 1784-286
[17] = 8.0 mcg/ml, serovar 14, strain 7-3
[18] = 8.0 mcg/ml, serovar 14, strain 7-43
[19] = 8.0 mcg/ml, serovar 14, strain BOONE
[20] = 8.0 mcg/ml, serovar 14, strain P-39
[21] = 16.0 mcg/ml, serovar 3, strain 7-17
[22] = 16.0 mcg/ml, serovar 3, strain 9-75
[23] = 16.0 mcg/ml, serovar 3, strain 12-1
[24] = 16.0 mcg/ml, serovar 3, strain 971-8
[25] = 16.0 mcg/ml, serovar 4, strain 5-13
[26] = 16.0 mcg/ml, serovar 4, strain 7-55
[27] = 16.0 mcg/ml, serovar 4, strain 8-50
[28] = 16.0 mcg/ml, serovar 4, strain TMC1463
[29] = 16.0 mcg/ml, serovar 9, strain 2-10
[30] = 16.0 mcg/ml, serovar 9, strain 6-38
[31] = 16.0 mcg/ml, serovar 9, strain 7-25
[32] = 16.0 mcg/ml, serovar 9, strain 1784-286
[33] = 16.0 mcg/ml, serovar 14, strain 7-3
[34] = 16.0 mcg/ml, serovar 14, strain 7-43
[35] = 16.0 mcg/ml, serovar 14, strain BOONE
[36] = 16.0 mcg/ml, serovar 14, strain P-39

## O=C1C(NC2CCCCCCC2)=CC(=O)c2ncccc21 [CQQ, 6-cyclo octylamino-5,8-quinoline quinone]
M. intracellulare [1]
  In vitro effectiveness against M. intracellulare: effective against M. intracellulare and M. tuberculosis in vitro
M. intracellulare [2]; [5]
  Day maximum GI achieved: 2 days
  Maximum GI: 16
M. intracellulare [2]; [6]
  Day maximum GI achieved: 2 days
  Maximum GI: 22
M. intracellulare [2]; [7]
  Day maximum GI achieved: 2 days
  Maximum GI: 4
M. intracellulare [2]; [8]
  Day maximum GI achieved: 3 days
  Maximum GI: 20
M. intracellulare [2]; [9]
  Day maximum GI achieved: 1 days
  Maximum GI: 14
M. intracellulare [2]; [10]
  Day maximum GI achieved: 2 days
  Maximum GI: 7
M. intracellulare [2]; [11]
  Day maximum GI achieved: 2 days
  Maximum GI: 15
M. intracellulare [2]; [12]
  Day maximum GI achieved: 1 days
  Maximum GI: 6
M. intracellulare [2]; [13]
  Day maximum GI achieved: 1 days
  Maximum GI: 14
M. intracellulare [2]; [14]
  Day maximum GI achieved: 1 days
  Maximum GI: 13
M. intracellulare [2]; [15]
  Day maximum GI achieved: 4 days
  Maximum GI: 33
M. intracellulare [2]; [16]
  Day maximum GI achieved: 1 days
  Maximum GI: 9
M. intracellulare [2]; [17]
  Day maximum GI achieved: 2 days
  Maximum GI: 5
M. intracellulare [2]; [18]
  Day maximum GI achieved: 1 days
  Maximum GI: 1
M. intracellulare [2]; [19]
  Day maximum GI achieved: 1 days
  Maximum GI: 13
M. intracellulare [2]; [20]
  Day maximum GI achieved: 1 days
  Maximum GI: 21
M. intracellulare [2]; 16.0 and 8.0 mcg/ml
  Inhibition of the strains: Complete inhibition
M. intracellulare [2]; [21]
  Day maximum GI achieved: 1 days
  Maximum GI: 5
M. intracellulare [2]; [22]
  Day maximum GI achieved: 1 days
  Maximum GI: 14
M. intracellulare [2]; [23]
  Day maximum GI achieved: 2 days
  Maximum GI: 6
M. intracellulare [2]; [24]
  Day maximum GI achieved: 1 days
  Maximum GI: 8
M. intracellulare [2]; [25]
  Day maximum GI achieved: 1 days
  Maximum GI: 4
M. intracellulare [2]; [26]
  Day maximum GI achieved: 2 days
  Maximum GI: 4
M. intracellulare [2]; [27]
  Day maximum GI achieved: 1 days
  Maximum GI: 6
M. intracellulare [2]; [28]
  Day maximum GI achieved: 1 days
  Maximum GI: 5
M. intracellulare [2]; [29]
  Day maximum GI achieved: 1 days
  Maximum GI: 12
M. intracellulare [2]; [30]
  Day maximum GI achieved: 1 days
  Maximum GI: 6
M. intracellulare [2]; [31]
  Day maximum GI achieved: 1 days
  Maximum GI: 7
M. intracellulare [2]; [32]
  Day maximum GI achieved: 1 days
  Maximum GI: 5
M. intracellulare [2]; [33]
  Day maximum GI achieved: 1 days
  Maximum GI: 4
M. intracellulare [2]; [34]
  Day maximum GI achieved: 1 days
  Maximum GI: 9
M. intracellulare [2]; [35]
  Day maximum GI achieved: 1 days
  Maximum GI: 7
M. intracellulare [2]; [36]
  Day maximum GI achieved: 1 days
  Maximum GI: 22
M. intracellulare [2]; both concentrations (16.0 and 8.0 mcg/ml)
  Effect on GI rates of all M. intracellulare strains: dramatic decrease in GI rates for all M. intracellulare strains
M. tuberculosis
  In vitro effectiveness against M. tuberculosis: effective against M. intracellulare and M. tuberculosis in vitro
M. intracellulare [3]
  Antimycobacterial activity, CFU counts from spleen and lungs vs controls: considerable antimycobactgerial activity with statistically significant differences
Blood clotting
  Blood clotting time: little change in blood clotting time
lymphocytes; 72 hours
  Assessment of chromosomal breaks: fully within the normal limits
lymphocytes; 72 hours at 37° C., at least 50 cells counted
  Total number of chromosomal breaks: 7
lymphocytes; 72 hours at 37° C., of at least 50 cells counted
  Cells with chromosomal breaks: 5
[4]; 10 mg/kg orally daily, each time point (P 0.05)
  Activity vs infected untreated control: considerable activity with a statistically significant difference
[4]; both 10 mg/kg orally daily
  Activity compared with ansamycin: better than that of ansamycin
macrophages
  Cytotoxic to macrophages: CYTOTOXIC TO MACROPHAGES
M. tuberculosis H37 Rv; 10 mg/kg daily orally, end of 4 weeks
  Mean CFU counts from spleens and lungs vs untreated controls: considerable reduction
M. tuberculosis H37 Rv; 10 mg/kg daily orally, end of 4 weeks, control 6.42
  Mean colony forming unit (CFU) count, lung: 4.21 LOG CFU
M. tuberculosis H37 Rv; 10 mg/kg daily orally, end of 4 weeks, control 6.90
  Mean colony forming unit (CFU) count, spleen: 4.90 LOG CFU
M. tuberculosis H37 Rv; conclusion from Table 2
  Antituberculosis effectiveness: clearly an effective antituberculosis agent

— patent US4963565A, “In vivo treatment of mycobacterial infections with 6-cyclo octylamino-5,8-quinoline quinone” (priority 1986, dated 1990)
